In ChEMBL document CHEMBL6096675 (J Med Chem, 2025):
Activity calls are given as the source filed them. No cut-off for these calls is given here.

Tests used:
[1] = Plasma concentration in SCID mouse xenografted with human NCI-H838 cells at 10 mg/kg, iv measured after 96 hrs by LC-MS/MS analysis; format: ADME, organism-based
[2] = Drug uptake in tumor of human NCI-H838 cells xenografted SCID mouse model at 10 mg/kg, iv measured after 24 hrs by LC-MS/MS analysis; format: ADME, organism-based, Neoplasm; conditions: read-out: Drug uptake
[3] = Drug uptake in tumor of human NCI-H838 cells xenografted SCID mouse model at 10 mg/kg, iv measured after 96 hrs by LC-MS/MS analysis; format: ADME, organism-based, Neoplasm; conditions: read-out: Drug uptake
[4] = Plasma concentration in SCID mouse xenografted with human NCI-H838 cells at 10 mg/kg, iv measured after 168 hrs by LC-MS/MS analysis; format: ADME, organism-based; conditions: in vivo, iv, 10 mg/kg, 168 h
[5] = Drug uptake in tumor of human NCI-H838 cells xenografted SCID mouse model at 10 mg/kg, iv measured after 48 hrs by LC-MS/MS analysis; format: ADME, organism-based, Neoplasm; conditions: read-out: Drug uptake
[6] = Drug uptake in tumor of human NCI-H838 cells xenografted SCID mouse model at 10 mg/kg, iv measured after 168 hrs by LC-MS/MS analysis; format: ADME, organism-based, Neoplasm; conditions: read-out: Drug uptake
[7] = target: SWI/SNF-related matrix-associated actin-dependent regulator of chromatin subfamily A member 2 (Homo sapiens, UniProt P51531); test: Inhibition of human SMARCA2 by TR-FRET assay
[8] = Antiproliferative activity against human SMARCA4-deficient NCI-H838 cells assessed as inhibition of cell growth measured after 7 days by WST-8 assay; format: functional; conditions: NCI-H838, 168 h, time 7 day
[9] = Antiproliferative activity against human SMARCA4-deficient NCI-H1568 cells assessed as inhibition of cell growth measured after 7 days by WST-8 assay; format: functional; conditions: NCI-H1568, 168 h, time 7 day
SK-MEL-5 = test: Antiproliferative activity against human SMARCA4-deficient SK-MEL-5 cells assessed as maximal inhibition of cell growth measured after 7 days by WST-8 assay relative to control; format: functional; conditions: time 7 day
[10] = Antiproliferative activity against human SMARCA4-deficient NCI-H1568 cells assessed as maximal inhibition of cell growth measured after 7 days by WST-8 assay relative to control; format: functional; conditions: time 7 day
[11] = Antiproliferative activity against human SMARCA4-deficient NCI-H1944 cells assessed as maximal inhibition of cell growth measured after 7 days by WST-8 assay relative to control; format: functional; conditions: time 7 day
[12] = Antiproliferative activity against human SMARCA4-deficient NCI-H1693 cells assessed as maximal inhibition of cell growth measured after 7 days by WST-8 assay relative to control; format: functional; conditions: time 7 day
SK-MEL-28 = test: Antiproliferative activity against human SMARCA4-wild type SK-MEL-28 cells assessed as maximal inhibition of cell growth measured after 7 days by WST-8 assay relative to control; format: functional; conditions: time 7 day
[13] = AUC (0 to 24hrs) in mouse at 1 mg/kg, iv; format: ADME, organism-based; conditions: in vivo
[14] = Clearance in mouse at 1 mg/kg, iv; format: ADME, organism-based; conditions: in vivo
[15] = Half life in rat at 1 mg/kg, iv; format: ADME, organism-based; conditions: in vivo
[16] = Cmax in rat at 1 mg/kg, iv; format: ADME, organism-based; conditions: in vivo
[17] = AUC (0 to 24hrs) in rat at 1 mg/kg, iv; format: ADME, organism-based; conditions: in vivo
[18] = Volume of distribution of steady state in rat at 1 mg/kg, iv; format: ADME, organism-based; conditions: in vivo, read-out: Vdss
[19] = Clearance in rat at 1 mg/kg, iv; format: ADME, organism-based; conditions: in vivo
[20] = Plasma concentration in mouse xenografted with human H838 cells at 10 mg/kg, iv single dose measured after 6 hrs by LC-MS/MS analysis; format: ADME, organism-based, NCI-H838
[21] = Plasma concentration in mouse xenografted with human H838 cells at 10 mg/kg, iv single dose measured after 48 hrs by LC-MS/MS analysis; format: ADME, organism-based, NCI-H838
[22] = Drug uptake in tumor of mouse xenografted with human H838 cells at 10 mg/kg, iv single dose measured after 6 hrs by LC-MS/MS analysis; format: ADME, organism-based, Neoplasm, NCI-H838; conditions: read-out: Drug uptake
[23] = Drug uptake in tumor of mouse xenografted with human H838 cells at 10 mg/kg, iv single dose measured after 48 hrs by LC-MS/MS analysis; format: ADME, organism-based, Neoplasm, NCI-H838; conditions: read-out: Drug uptake
[24] = Drug uptake in tumor of mouse xenografted with human H838 cells at 10 mg/kg, iv single dose measured after 168 hrs by LC-MS/MS analysis; format: ADME, organism-based, Neoplasm, NCI-H838; conditions: read-out: Drug uptake
[25] = Plasma concentration in mouse xenografted with human MV4-11 cells at 30 mg/kg, iv single dose measured after 24 hrs by LC-MS/MS analysis; format: ADME, organism-based
[26] = Plasma concentration in mouse xenografted with human MV4-11 cells at 30 mg/kg, iv single dose measured after 168 hrs by LC-MS/MS analysis; format: ADME, organism-based
[27] = Drug uptake in tumor of mouse xenografted with human MV4-11 cells at 30 mg/kg, iv single dose measured after 24 hrs by LC-MS/MS analysis; format: ADME, organism-based, Neoplasm; conditions: read-out: Drug uptake
[28] = Drug uptake in tumor of mouse xenografted with human MV4-11 cells at 30 mg/kg, iv single dose measured after 96 hrs by LC-MS/MS analysis; format: ADME, organism-based, Neoplasm; conditions: read-out: Drug uptake
[29] = Metabolic stability in mouse liver microsomes assessed as half life; format: ADME, Microsome
[30] = Metabolic stability in rat liver microsomes assessed as half life; format: ADME, Microsome
[31] = Metabolic stability in human liver microsomes assessed as half life; format: ADME, Microsome
[32] = Plasma stability in mouse plasma assessed as half life; format: ADME, cell-free
[33] = Plasma stability in human plasma assessed as half life; format: ADME, cell-free
Cytochrome P450 2C9 = Cytochrome P450 2C9 (Homo sapiens, UniProt P11712); test: Inhibition of CYP2C9 (unknown origin); format: ADME
Cytochrome P450 2D6 = Cytochrome P450 2D6 (Homo sapiens, UniProt P10635); test: Inhibition of CYP2D6 (unknown origin); format: ADME
Cytochrome P450 3A4 [34] = target: T1, Cytochrome P450 3A4 (Homo sapiens, UniProt P08684); test: Inhibition of CYP3A4 (unknown origin) using midazolam as substrate; format: ADME
Cytochrome P450 3A4 [35] = target: T1, Cytochrome P450 3A4; test: Inhibition of CYP3A4 (unknown origin) using testosterone as substrate; format: ADME
NCI-H838 [36] = test: In vivo anti-tumor activity against human NCI-H838 cells xenografted in SCID mouse assessed as assessed as inhibition of tumor growth at 10 mg/kg, iv measured after 3 weeks relative to control; format: functional; conditions: NCI-H838, 504 h, read-out: TGI
NCI-H838 [37] = test: In vivo anti-tumor activity against human NCI-H838 cells xenografted in SCID mouse assessed as assessed as inhibition of tumor growth at 30 mg/kg, iv measured after 3 weeks relative to control; format: functional; conditions: NCI-H838, 504 h, read-out: TGI
[38] = Toxicity in SCID mouse xenografted with human H838 cells assessed as toxicity signs at 30 mg/kg, iv measured after 3 weeks; format: organism-based; conditions: in vivo, 504 h
NCI-H838 [39] = test: In vivo anti-tumor activity against human NCI-H838 cells xenografted in SCID mouse assessed as assessed as inhibition of tumor growth at 10 mg/kg, iv treated for 3 weeks measured after treatment stop; format: functional, organism-based
NCI-H838 [40] = test: In vivo anti-tumor activity against SMARCA4-deficient human NCI-H838 cells xenografted in SCID mouse assessed as assessed as inhibition of tumor growth at 10 to 30 mg/kg, iv weekly once; format: functional, organism-based; conditions: dose 10-30 mg/kg

T1 sequence (P08684 whole entry): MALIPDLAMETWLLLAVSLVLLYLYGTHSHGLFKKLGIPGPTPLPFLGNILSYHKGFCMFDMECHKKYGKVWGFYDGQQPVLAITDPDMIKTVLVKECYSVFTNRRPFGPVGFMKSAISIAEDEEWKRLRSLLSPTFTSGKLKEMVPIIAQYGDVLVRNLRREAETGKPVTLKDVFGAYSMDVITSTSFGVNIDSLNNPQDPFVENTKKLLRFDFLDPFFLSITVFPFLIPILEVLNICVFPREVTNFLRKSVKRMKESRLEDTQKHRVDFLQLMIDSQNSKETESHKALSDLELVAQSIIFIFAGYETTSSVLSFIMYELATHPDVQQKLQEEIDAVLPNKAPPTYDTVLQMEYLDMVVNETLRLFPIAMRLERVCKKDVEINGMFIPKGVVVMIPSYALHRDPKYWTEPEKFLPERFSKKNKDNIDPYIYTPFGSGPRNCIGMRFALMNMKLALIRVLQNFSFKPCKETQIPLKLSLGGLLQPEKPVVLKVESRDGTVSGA
Chain of SWI/SNF-related matrix-associated actin-dependent regulator of chromatin subfamily A member 2 (P51531 whole entry): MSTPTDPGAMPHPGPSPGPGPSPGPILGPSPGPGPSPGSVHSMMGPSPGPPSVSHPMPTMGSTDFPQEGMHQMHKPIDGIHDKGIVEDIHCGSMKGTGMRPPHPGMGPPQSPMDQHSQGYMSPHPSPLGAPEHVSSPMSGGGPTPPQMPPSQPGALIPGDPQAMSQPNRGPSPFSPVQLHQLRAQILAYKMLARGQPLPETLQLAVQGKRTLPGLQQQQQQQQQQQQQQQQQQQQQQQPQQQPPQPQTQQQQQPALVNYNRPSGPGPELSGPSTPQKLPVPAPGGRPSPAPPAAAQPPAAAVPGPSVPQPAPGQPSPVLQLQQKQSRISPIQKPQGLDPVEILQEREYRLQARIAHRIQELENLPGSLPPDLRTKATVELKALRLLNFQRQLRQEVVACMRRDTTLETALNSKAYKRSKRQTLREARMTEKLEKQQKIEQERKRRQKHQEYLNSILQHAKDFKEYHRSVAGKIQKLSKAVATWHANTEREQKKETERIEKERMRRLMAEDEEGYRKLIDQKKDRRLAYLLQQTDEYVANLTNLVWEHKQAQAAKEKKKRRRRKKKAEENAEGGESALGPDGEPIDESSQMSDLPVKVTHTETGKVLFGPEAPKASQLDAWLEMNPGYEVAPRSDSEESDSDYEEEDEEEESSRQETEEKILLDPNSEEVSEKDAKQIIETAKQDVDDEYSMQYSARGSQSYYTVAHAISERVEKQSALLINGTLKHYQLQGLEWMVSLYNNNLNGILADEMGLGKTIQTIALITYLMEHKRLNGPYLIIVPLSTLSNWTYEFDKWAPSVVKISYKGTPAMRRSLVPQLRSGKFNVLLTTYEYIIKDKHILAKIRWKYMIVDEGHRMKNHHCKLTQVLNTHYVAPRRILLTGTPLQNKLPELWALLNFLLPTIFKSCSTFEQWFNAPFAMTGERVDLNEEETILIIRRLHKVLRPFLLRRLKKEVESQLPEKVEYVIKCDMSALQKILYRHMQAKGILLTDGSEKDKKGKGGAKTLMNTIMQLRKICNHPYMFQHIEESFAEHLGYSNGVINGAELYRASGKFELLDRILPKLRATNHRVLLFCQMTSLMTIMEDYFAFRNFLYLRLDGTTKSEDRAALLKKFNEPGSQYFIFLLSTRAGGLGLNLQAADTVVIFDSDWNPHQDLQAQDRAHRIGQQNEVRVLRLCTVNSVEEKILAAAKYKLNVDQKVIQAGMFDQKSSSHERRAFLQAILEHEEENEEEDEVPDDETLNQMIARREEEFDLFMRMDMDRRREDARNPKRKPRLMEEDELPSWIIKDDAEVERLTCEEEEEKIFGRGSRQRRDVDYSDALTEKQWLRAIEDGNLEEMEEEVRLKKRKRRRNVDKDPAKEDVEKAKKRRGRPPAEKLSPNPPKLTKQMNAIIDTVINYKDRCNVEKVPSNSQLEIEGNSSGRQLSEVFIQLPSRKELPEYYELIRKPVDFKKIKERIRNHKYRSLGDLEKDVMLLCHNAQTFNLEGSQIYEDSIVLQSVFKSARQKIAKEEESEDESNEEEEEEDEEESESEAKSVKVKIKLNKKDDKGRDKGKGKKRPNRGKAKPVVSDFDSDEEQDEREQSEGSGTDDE
Chain of Cytochrome P450 2D6 (P10635 whole entry): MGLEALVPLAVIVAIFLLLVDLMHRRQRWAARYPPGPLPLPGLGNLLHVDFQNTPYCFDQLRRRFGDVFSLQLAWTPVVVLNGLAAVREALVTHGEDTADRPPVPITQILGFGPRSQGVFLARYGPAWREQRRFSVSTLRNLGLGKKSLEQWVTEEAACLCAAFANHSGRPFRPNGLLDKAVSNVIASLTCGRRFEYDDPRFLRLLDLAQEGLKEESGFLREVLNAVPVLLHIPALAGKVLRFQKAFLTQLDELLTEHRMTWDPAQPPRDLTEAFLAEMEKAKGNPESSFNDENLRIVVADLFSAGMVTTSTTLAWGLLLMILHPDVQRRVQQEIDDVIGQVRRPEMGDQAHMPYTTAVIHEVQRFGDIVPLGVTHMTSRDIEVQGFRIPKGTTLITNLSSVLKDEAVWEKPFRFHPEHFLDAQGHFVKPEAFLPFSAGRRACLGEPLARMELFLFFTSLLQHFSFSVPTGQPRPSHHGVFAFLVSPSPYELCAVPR
Chain of Cytochrome P450 2C9 (P11712 whole entry): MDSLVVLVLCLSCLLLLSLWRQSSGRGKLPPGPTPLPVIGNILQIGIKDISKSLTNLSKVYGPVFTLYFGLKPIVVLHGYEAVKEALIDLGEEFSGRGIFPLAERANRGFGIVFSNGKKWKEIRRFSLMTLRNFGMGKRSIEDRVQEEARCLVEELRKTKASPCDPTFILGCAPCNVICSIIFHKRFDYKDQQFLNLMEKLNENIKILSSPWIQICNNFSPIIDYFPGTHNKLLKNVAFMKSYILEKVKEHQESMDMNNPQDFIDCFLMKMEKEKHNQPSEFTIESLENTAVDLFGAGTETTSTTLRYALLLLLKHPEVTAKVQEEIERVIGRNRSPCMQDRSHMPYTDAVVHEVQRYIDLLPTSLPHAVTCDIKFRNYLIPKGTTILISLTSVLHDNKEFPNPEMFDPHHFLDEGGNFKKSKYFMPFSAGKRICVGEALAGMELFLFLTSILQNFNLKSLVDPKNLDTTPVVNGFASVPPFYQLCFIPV

concentration at 96 h [1]: 6.8 ng/mL
concentration at 24 h [2]: 400 ng/mL
concentration at 96 h [3]: 268 ng/mL
Cp [4]: Below_limit_of_detection
concentration at 48 h [5]: 437 ng/mL
concentration at 168 h [6]: 169 ng/mL
IC50 [7]: 42.2 nM
AUC(0-t) [13]: 1740 ng·h/mL
clearance [14]: 9.2 mL/min/kg
half-life [15]: 6.3 h
Cmax [16]: 2420 ng/mL
AUC(0-t) [17]: 753 ng·h/mL
Vd [18]: 0.9 L/kg
clearance [19]: 22 mL/min/kg
concentration at 6 h [20]: 585 ng/mL
concentration at 48 h [21]: 15 ng/mL
concentration at 6 h [22]: 608 ng/mL
concentration at 48 h [23]: 437 ng/mL
concentration at 168 h [24]: 169 ng/mL
concentration at 24 h [25]: 139 ng/mL
concentration at 168 h [26]: 19 ng/mL
concentration at 24 h [27]: 2290 ng/mL
concentration at 96 h [28]: 1640 ng/mL
half-life [29]: > 1 h
half-life [30]: > 1 h
half-life [31]: > 1 h
half-life [32]: > 2 h
half-life [33]: > 2 h
IC50 (Cytochrome P450 2C9): > 100000 nM
IC50 (Cytochrome P450 2D6): > 100000 nM
IC50 (Cytochrome P450 3A4 [34]): > 100000 nM
IC50 (Cytochrome P450 3A4 [35]): > 100000 nM
Compound: Cc1ncsc1-c1ccc([C@H](CN2CCOCC2)NC(=O)[C@@H]2C[C@@H](O)CN2C(=O)[C@@H](n2cc([C@H]3CC[C@H](CN4CCC(c5ccc6c(c5)-n5c(nc(=O)c7c(Cl)cccc75)C65CCCCC5)CC4)CC3)nn2)C(C)(C)C)cc1
GI50 [8]: 9.5 nM
GI50 [9]: 2.2 nM
Imax (SK-MEL-5): 95%
Imax [10]: 86%
Imax [11]: 71%
Imax [12]: 85%
Imax (SK-MEL-28): 55%
inhibition in vivo at 10 mg/kg (NCI-H838 [36]): 87%
inhibition in vivo at 30 mg/kg (NCI-H838 [37]): 91%
Activity [38]: Non-toxic
Activity (NCI-H838 [39]): inactive
Activity (NCI-H838 [40]): Active
